Literature values in patent US20170112865A1, “TREATMENT FOR MELANOMA” (The Board of Regents of the University of Texas System, priority 2014, published 2017).
Values belong to the compound of their own block, whether it stands above or below them.

Tests used:
[1] = system: BRAFV600E/k mutant advanced or malignant melanoma
[2] = system: BRAF V600E mutation-positive advanced melanoma; details: human, in vivo
[3] = in vivo
[4] = in vivo; remark: listed apart in the source
[5] = system: melanoma; details: at 5 years

Compound: CC(=O)Nc1cccc(-n2c(=O)n(C3CC3)c(=O)c3c(Nc4ccc(I)cc4F)n(C)c(=O)c(C)c32)c1 [Trametinib]
- Grade 3 adverse effect: hypertension ([1]; Trametinib arm): 12%
- Grade 3 adverse effect: rash ([1]; Trametinib arm): 7%
- most frequent adverse events ([1]; in vivo): skin rash, diarrhea, edema, hypertension, fatigue

Compound: CC(C)(C)c1nc(-c2cccc(NS(=O)(=O)c3c(F)cccc3F)c2F)c(-c2ccnc(N)n2)s1 [dabrafinib, Dabrafenib]
- time within which resistance occurs [2]: 6 to 7 months

- half-life [3]: about 36 hours
Compound: C[C@H]1O[C@@H](O[C@H]2[C@@H](O)C[C@H](O[C@H]3[C@@H](O)C[C@H](O[C@H]4CC[C@@]5(C)[C@H](CC[C@@H]6[C@@H]5C[C@@H](O)[C@]5(C)[C@@H](C7=CC(=O)OC7)CC[C@]65O)C4)O[C@@H]3C)O[C@@H]2C)C[C@H](O)[C@@H]1O [digoxin, Digoxin]
- plasma concentration at which adverse effects are rare [4]: < 0.8 ng/mL

Compound: interferon
- increase in survival [5]: 3%
